Where two headings read alike, the source gives them in different places.
Assays:
[1] = test system: CYP2B6 and CYP3A4 expression; assay: CYP2B6 and CYP3A4 mRNA (real-time RT-PCR) and protein (western blot) induction in human primary hepatocytes
Experimental: (§1) The age and sex of each liver donor used are detailed in Table 1.
(§2) Total RNA was isolated from cells using TRIzol reagent (ThermoFisher, Rockford, Ill.) and reverse transcribed using a High Capacity cDNA archive kit (Applied
(§3) Biosystems, Foster, Calif.) according to the manufacturer's instructions. Real-time PCR assay was performed using SYBR Green PCR Mastermix (Qiagen, Germantown, Md.) on an ABI StepOnePlus real-timePCR system (Applied Biosystems). […] Expression values were quantified using the following equation: fold over control=2^ΔΔCt method, where ΔCt represents the differences in cycle threshold numbers between the target gene and glyceraldehyde-3-phosphate dehydrogenase, and ΔΔCt represents the relative change in these differences between control and treatment groups.
(§4) Subsequently, membranes were incubated with primary antibodies against CYP2B6 (1:200; Santa Cruz Biotechnology, Santa Cruz, Calif.), CYP3A4 (1:5000; Sigma-Aldrich), or β-actin (1:50,000, Sigma-Aldrich) at 4° C. overnight. Blots were developed with West Pico chemiluminescent substrates (ThermoFisher) after incubation with horse-radish peroxidase secondary antibodies.

hCAR1+A = molecular target: T1, hCAR1+A (Homo sapiens, UniProt Q14994, INS274A); assay: CAR1+A/CYP2B6-2.2k reporter assay in transfected HepG2 cells; assay type: cell-based; details: HepG2 cells without HPHs, 24 h
T1 construct: expressed in transfected cells; host or cells: HepG2
T1 sequence (Q14994 with tags, fused parts or gaps isoform Q14994-2 INS270A): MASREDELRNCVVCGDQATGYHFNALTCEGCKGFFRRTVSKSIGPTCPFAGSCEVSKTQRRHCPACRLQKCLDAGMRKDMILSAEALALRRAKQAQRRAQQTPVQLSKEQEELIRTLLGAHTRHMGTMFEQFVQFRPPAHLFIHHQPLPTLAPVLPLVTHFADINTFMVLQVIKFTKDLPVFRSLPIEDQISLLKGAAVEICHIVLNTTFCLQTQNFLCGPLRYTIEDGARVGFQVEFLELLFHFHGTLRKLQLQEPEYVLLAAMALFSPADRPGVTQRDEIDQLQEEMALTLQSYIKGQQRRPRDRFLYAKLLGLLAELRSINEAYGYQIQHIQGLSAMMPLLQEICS
T1 sequence (P19793 1-462 partner): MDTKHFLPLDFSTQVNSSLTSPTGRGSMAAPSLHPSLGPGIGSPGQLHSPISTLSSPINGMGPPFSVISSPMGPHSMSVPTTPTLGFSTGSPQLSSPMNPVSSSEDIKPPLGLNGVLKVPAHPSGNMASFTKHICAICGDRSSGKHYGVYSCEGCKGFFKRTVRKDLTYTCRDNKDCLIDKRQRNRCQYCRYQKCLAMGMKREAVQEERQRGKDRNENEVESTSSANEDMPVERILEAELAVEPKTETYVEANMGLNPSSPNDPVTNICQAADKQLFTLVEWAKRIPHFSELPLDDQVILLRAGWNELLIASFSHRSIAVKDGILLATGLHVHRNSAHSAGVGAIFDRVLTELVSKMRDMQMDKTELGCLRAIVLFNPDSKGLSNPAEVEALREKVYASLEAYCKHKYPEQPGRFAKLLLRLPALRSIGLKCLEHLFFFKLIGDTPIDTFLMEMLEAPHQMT

[2] = test system: human primary hepatocytes (HPHs); assay: LC-MS/MS measurement of PK11195 metabolism in HPHs; assay type: in vitro ADME; details: for LC-MS/MS peak of metabolite in HPH culture medium: after 1 hour incubation of 10 μM PK11195 with HPHs, versus 0 hour
Experimental: Media (450 μl ) were collected from each well at 0 and 1 hours and frozen immediately at −80° C. Samples were thawed on ice before adding 50 μl of medium to 450 μl of ice-cold methanol/H2O (8:1, v/v). After centrifugation at 16,000g for 30 minutes, 200 μl of supernatant was transferred to a separate tube and dried down before resuspension in 200 μl H2O/ACN (1:1, v/v) with 0.1% formic acid. Authentic standards were prepared to 1 μM in H2O/ACN (1:1, v/v) with 0.1% formic acid. LC-MS/MS analysis was performed on a TSQ Quantum Ultra Triple Stage Quadrupole Mass Spectrometer coupled to an Ultimate 3000 RS Liquid Chromatogram System (Thermo Scientific, Waltham, Mass.). The LC separation was performed on a Waters (Milford, Mass.) BEH C18 column (2.1×50 mm, 1.7 μm) operated at 30° C. Solvents A and B consisted of 0.1% formic acid in H2O and 0.1% formic acid in ACN, respectively. The gradient program was 0.0-0.5 minutes, 50% B; 0.5-2.0 minutes, gradient to 95% B; 2.0-3.5 minutes, 95% B; 3.5-4.0 minutes, gradient to 50% B; and 4.0-5.0 minutes, 50% B. The flow rate was 0.5 ml/min and injection volume was 5 μl. Tandem mass spectrometry was performed in the positive-ion mode and the electrospray ionization source parameters were as follows: spray voltage, 3000; capillary temperature, 325; sheath gas pressure, 40; auxiliary gas pressure, 15; capillary offset, 35; and tube lens offset, 80. […] Data collection and analysis were performed using Xcalibur V 2.1 (Thermo Scientific).

hCAR [3] = molecular target: T2, hCAR (Homo sapiens, UniProt Q14994); assay: CYP2B6 luciferase reporter assay in HepG2-CAR-2B6 stable cells without HPHs; assay type: cell-based; parameters: expressed in transfected cells; details: 24 h; for hCAR activity (CYP2B6 reporter luciferase activity): HepG2-CAR-2B6 cells without HPHs
T2 sequence (Q14994 1-348 isoform Q14994-2): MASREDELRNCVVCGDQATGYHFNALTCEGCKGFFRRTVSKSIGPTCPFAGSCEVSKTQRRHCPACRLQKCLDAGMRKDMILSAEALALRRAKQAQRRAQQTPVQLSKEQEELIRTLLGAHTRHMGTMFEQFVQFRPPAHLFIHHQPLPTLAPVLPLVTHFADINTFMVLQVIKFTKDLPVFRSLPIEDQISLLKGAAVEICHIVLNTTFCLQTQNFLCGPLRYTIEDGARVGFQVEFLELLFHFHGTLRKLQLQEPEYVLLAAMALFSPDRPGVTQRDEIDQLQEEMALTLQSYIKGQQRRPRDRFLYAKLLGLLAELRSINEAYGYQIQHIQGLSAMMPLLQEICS

hCAR [4] = molecular target: T2, hCAR; assay: Nuclear translocation of EYFP-hCAR in HPHs; assay type: cell-based; parameters: expressed in transfected cells; details: HPHs donor 123; 1 mM PB, 10 μM others; 8 hours
Experimental: After treatment, cells were fixed with 4% paraformaldehyde, stained with 1 μg/ml 4′,6-diamidino-2-phenylindole (Sigma-Aldrich) for 30 minutes, and EYFP-hCAR localization in hepatocytes was visualized on a Nikon Eclipse TI fluorescent microscope (Nikon, Melville, N.Y.). Quantitative distribution of EYFP-hCAR was analyzed using General Analysis in the Nikon Elements AR High Content Analysis software package (version 4.50.00). Nuclear localization was defined and quantified as the percentage of total enhanced yellow fluorescent protein that overlaps with 4′,6-diamidino-2-phenylindole.

HEK-293 cells [5] = details: HEK-293 cultured alone, concentration up to 1 mM, 24 hrs
HEK-293 cells [6] = details: HPH/HEK-293 co-culture versus HEK-293 alone, 24 hrs
[7] = Mordente A et al., 2009; cited from earlier work
hCAR [8] = molecular target: T2, hCAR; details: 8 μM KET, PK11195 1 and 10 μM, HPH co-culture, 24 h
hCAR/GRIP1 interaction = molecular target: T3, hCAR/GRIP1 interaction (Homo sapiens, UniProt Q14994); assay: Mammalian two-hybrid assay in COS1 cells, CAR/GRIP1; assay type: cell-based; details: 24 h
T3 construct: expressed in transfected cells; host or cells: COS1
T3 sequence (Q14994 1-348 isoform Q14994-2): T2 sequence (Q14994 1-348 isoform Q14994-2)
Experimental: (§5) COS1 cells seeded in 24-well plates were transfected with 110 ng of the reporter gene plasmid pG5luc, 80 ng of expression plasmids encoding the respective VP16AD/hCAR fusions, 40 ng of expression plasmids encoding GAL4-DBD/coregulatory fusions, and 20 ng of reference plasmid pRL-TK, each well using X-tremeGENE 9 DNA Transfection Reagent (Sigma-Aldrich). […] Luciferase activities were measured in cell lysates using the Dual Luciferase Kit (Promega). Data represent the mean±S.D. of three individual transfections.

[9] = test system: CYP2B6 and CYP3A4 expression; assay: CYP2B6 and CYP3A4 induction in PXR-KO HepaRG cells; details: differentiated PXR-KO HepaRG cells; 10 μM; 24 h mRNA, 72 h protein
Experimental: as §1, §2, §3, §4

hCAR/SRC-1 interaction = molecular target: T4, hCAR/SRC-1 interaction (Homo sapiens, UniProt Q14994); assay: Mammalian two-hybrid assay in COS1 cells, CAR/SRC-1; assay type: cell-based; details: 24 h
T4 construct: expressed in transfected cells; host or cells: COS1
T4 sequence (Q14994 1-348 isoform Q14994-2): T2 sequence (Q14994 1-348 isoform Q14994-2)
Experimental: as §5

[10] = test system: CYP2B6 and CYP3A4 expression; assay: CYP2B6 and CYP3A4 induction in wild-type HepaRG cells; assay type: cell-based; details: differentiated wild-type HepaRG cells; 10 μM PK11195; 24 h mRNA, 72 h protein
Experimental: as §1, §2, §3, §4

SMILES: Clc1ccc(-c2nc3sccn3c2C=NOCc2ccc(Cl)c(Cl)c2)cc1 [CITCO, 6-(4-Chlorophenyl)imidazo[2,1-b][1,3]thiazole-5-carbaldehyde-O-(3,4-dichlorobenzyl)oxime]
- induction of CYP2B6 and CYP3A4 at mRNA and protein levels ([1]; HPHs from liver donors 107 and 122, 1 mM PB, 1 μM CITCO, 10 μM RIF, 10 μM PK11195, 24 h mRNA, 72 h protein): robustly induced

SMILES: O=C(O)c1cc2ccccc2c(-c2ccccc2Cl)n1 [COOH-PK, 1-(2-Chlorophenyl)isoquinoline-3-carboxylic acid]
- induction of CYP2B6 and CYP3A4 at mRNA and protein levels ([1]; HPHs from liver donors 120 and 121, 0.1, 1 and 10 μM, 24 h mRNA, 72 h protein): negligible effects
- hCAR activation in the CAR1+A/CYP2B6-2.2k reporter assay (hCAR1+A): negligible CAR activation
- LC-MS/MS peak of metabolite in HPH culture medium [2]: significantly increased in intensity
- hCAR activity (CYP2B6 reporter luciferase activity) (hCAR [3]): no effect on CAR activity
- nuclear translocation of hCAR (EYFP-hCAR) (hCAR [4]): negligible CAR nuclear accumulation

SMILES: O=P1(N(CCCl)CCCl)NCCCO1 (stereo not shown) [CPA, cyclophosphamide]
- cytotoxicity (HEK-293 cells [5]): no cytotoxicity
- metabolism-dependent cytotoxicity (HEK-293 cells [6]): showed metabolism-dependence in the co-culture only

SMILES: COc1cccc2c1C(=O)c1c(O)c3c(c(O)c1C2=O)C[C@@](O)(C(=O)CO)C[C@@H]3O[C@H]1C[C@H](N)[C@H](O)[C@H](C)O1 [DOX, doxorubicin]
- fraction eliminated from the body unchanged [7]: over 50%

SMILES: CC(=O)N1CCN(c2ccc(OCC3COC(Cn4ccnc4)(c4ccc(Cl)cc4Cl)O3)cc2)CC1 (stereo not shown) [KET, ketoconazole]
- effect of KET co-treatment on repression of CAR activity by PK11195 (hCAR [3]; 8 μM KET, HepG2-CAR-2B6 cells alone): not influenced
- effect of KET co-treatment on conversion of PK11195 from CAR antagonist to CAR activator (hCAR [8]): significantly inhibited the conversion of PK11195

SMILES: CC[C@@H](C)NC(=O)c1cc2ccccc2c(-c2ccccc2Cl)n1 [ND-PK, (R)-N-Desmethyl PK11195]
- interaction between hCAR and GRIP1 (hCAR/GRIP1 interaction; 10 μM, COS1 cells): moderately enhanced
- effect on PK11195-repressed binding of GRIP1 to hCAR (hCAR/GRIP1 interaction; ND-PK + PK11195 co-treatment): only minimally affecting
- hCAR activation in the CAR1+A/CYP2B6-2.2k reporter assay (hCAR1+A): robustly activates hCAR to a level similar to the positive control
- induction of CYP2B6 and CYP3A4 mRNA and protein [9]: significantly induced
- LC-MS/MS peak of metabolite in HPH culture medium [2]: significantly increased in intensity
- hCAR activity (CYP2B6 reporter luciferase activity) (hCAR [3]): activated hCAR in a concentration-dependent manner
- nuclear translocation of hCAR (EYFP-hCAR) (hCAR [4]): robustly increased nuclear translocation
- interaction between hCAR and SRC-1 (hCAR/SRC-1 interaction; 10 μM, COS1 cells): moderately enhanced
- effect on PK11195 mediated repression of SRC-1/CAR interaction (hCAR/SRC-1 interaction; ND-PK + PK11195 co-treatment): markedly rescued

SMILES: CCC1(c2ccccc2)C(=O)NC(=O)NC1=O [PB, Phenobarbital]
- induction of CYP2B6 and CYP3A4 at mRNA and protein levels ([1]; hepatocytes): robustly induced

SMILES: CCC(C)N(C)C(=O)c1cc2ccccc2c(-c2ccccc2Cl)n1 (stereo not shown) [PK11195, 1-(2-chlorophenyl)-N-methyl-N-(1-methylpropyl)-3-isoquinolinecarboxamide]
- induction of CYP2B6 and CYP3A4 mRNA and protein [10]: induced the expression of CYP2B6 and CYP3A4 mRNA and protein
- induction of CYP2B6 and CYP3A4 at mRNA and protein levels [1]: robustly induced
- induction of CYP2B6 and CYP3A4 mRNA and protein [9]: significantly induced
- metabolism of PK11195 by HPHs ([2]; 10 μM PK11195, media at 0 and 1 hour): metabolized by HPHs to COOH-PK and ND-PK

Source: US11608483B2, “Inverted culture plate system for cellular co-culture” (University of Maryland, Baltimore, priority 2016, dated 2023)
